Data set [1] deals with T1, CRF receptor (Homo sapiens, UniProt P34998).
T1 construct: Cell membranes are prepared according the method of Dieterich and DeSouza (1996); endogenous in cells; host or cells: IMR-32 human neuroblastoma cells (membrane preparation)
T1 sequence (P34998 24-415): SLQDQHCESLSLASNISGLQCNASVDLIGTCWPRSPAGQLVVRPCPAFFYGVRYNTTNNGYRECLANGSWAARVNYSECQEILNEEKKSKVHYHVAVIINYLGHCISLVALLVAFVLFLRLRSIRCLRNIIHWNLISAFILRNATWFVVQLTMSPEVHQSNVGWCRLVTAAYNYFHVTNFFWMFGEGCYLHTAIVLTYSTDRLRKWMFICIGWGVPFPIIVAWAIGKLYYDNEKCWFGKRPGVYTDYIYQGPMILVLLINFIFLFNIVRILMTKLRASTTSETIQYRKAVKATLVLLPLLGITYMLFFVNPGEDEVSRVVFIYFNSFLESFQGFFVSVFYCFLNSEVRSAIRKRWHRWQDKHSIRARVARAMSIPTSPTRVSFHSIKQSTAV
Nature of the data set: CRF Receptor Binding Assay (competition with [125I]Tyr0-ovine CRF, IMR-32 cell membranes). To be noted: Human IMR-32 neuroblastoma cell membranes. As for the experimental part: CRF Receptor Binding Assay
Human IMR-32 neuroblastoma cells are grown to 80% confluence in MEM medium containing 10% heat-inactivated FBS, 1 mM sodium pyruvate, and 0.1 mM nonessential amino acids. Cell membranes are prepared according the method of Dieterich and DeSouza (1996). The cells (˜5E+9) are resuspended in 10 volumes of wash buffer (5 mM Tris HCl, 10 mM MgCl2, 2 mM EGTA, pH 7.4 at RT), homogenized with a Polytron, and then centrifuged at 45,000 G for 20 min at 4° C. The membrane pellets are washed twice with wash buffer (45,000 G for 20 min at 4° C.) and then resuspended (50 mM Tris HCl, 10 mM MgCl2, 2 mM EGTA, pH 7.4 at RT). Protein concentration is determined using Pierce reagents and BSA as standard. Aliquots of 1-1.5 mL are stored at −80° C. until binding assay.
The competition binding assay is performed in a final volume of 250 μl, which contains assay buffer (50 mM Tris-HCl, 10 mM MgCl2, 2 mM EGTA, 0.2% BSA, 0.1 mM bacitracin and 100 kIU/mL aprotinin pH 7.2 at R.T.), 0.05 nM [^125I]Tyr^0-ovine CRF (Du Pont New England Nuclear), 50 μg of membrane protein, and test compound at various concentrations. Non-specific binding is determined with 1 uM hCRF. […] Unbound radioactivity is removed by four rapid washes (0.8 ml/well) with wash buffer. The radioactivity is quantified using a Packard TopCount. […]

The values that follow come from patent US7307082B2, “Heterocyclic derivatives as CRF antagonists” (Roche Palo Alto LLC, priority 2003, dated 2007).

What is called melting point is the temperature, or range, at which the solid turns liquid. The molecule `CCCC(CCC)N1CCCc2c(C)nc(Nc3ccc(C(C)C)cc3Br)nc21.Cl` displayed a melting point of 182 to 184 °C.
Molecule `CCCC(CCC)N1CCCc2c(C)nc(N(CC)c3ccc(C(C)C)cc3Br)nc21.Cl` yielded a melting point of 201 to 205 °C.
The IC50 is the concentration that gives 50% inhibition. A word on the Ki: it is a measure of affinity in units of concentration, obtained from inhibition or displacement. Read a low Ki as higher affinity. With `CCC(CC)N1CCc2c(C)nc(N(CC)c3c(C)cc(C)cc3C)nc21` [Cpd 2, Ethyl-[7-(1-ethyl-propyl)-4-meth-yl-6,7-dihydro-5H-pyr-rolo[2,3-d]pyrimidin-2-yl]-(2,4,6-tri-methyl-phenyl)-amine;compound with trifluoro-aceticacid], the IC50 in data set [1] (0.05 nM [125I]Tyr0-ovine CRF, 2 hr at 25° C.) is 2090 nM. For the same molecule, in data set [1] (pKi values are derived from pIC50 values), the affinity, expressed as Ki, was 195 nM.
The molecule `CCC(CC)N1C(=O)CCc2c(C)nc(Nc3ccc(C(C)C)cc3Br)nc21` [Cpd 113, 2-(2-Bromo-4-isopropyl-phenyl-amino)-8-(1-ethyl-propyl)-4-meth-yl-5,8-dihydro-6H-pyrido[2,3-d]py-rimidin-7-one] had a melting point of 124 to 126 °C.
As for `CCCC(CCC)N1C(=O)CCc2c(C)nc(N(CC)c3ccc(C(C)C)cc3Br)nc21` [Cpd 117, 2-[(2-Bromo-4-isopropyl-phenyl)-eth-yl-amino]-4-methyl-8-(1-propyl-bu-tyl)-5,8-dihydro-6H-pyrido[2,3-d]py-rimidin-7-one], the melting point lay in the range of 92 to 94 °C.
